Data as given in PubChem BioAssay (NCI).
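Briefly, cells in 96-well plates were exposed to five compound concentrations for 48 h, and endpoints were estimated by linear interpolation. TGI: total growth inhibition.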

What was measured:
Assay in all cases: inhibition of tumour cell growth, NCI panel, 48 h
786-0 renal = tested on: 786-0 renal
A498 renal = tested on: A498 renal
A549 NSCLC = tested on: A549 NSCLC
ACHN renal = tested on: ACHN renal
BT-549 breast = tested on: BT-549 breast
CAKI-1 renal = tested on: CAKI-1 renal
CCRF-CEM leukemia = tested on: CCRF-CEM leukemia
COLO 205 colon = tested on: COLO 205 colon
DU-145 prostate = tested on: DU-145 prostate
EKVX NSCLC = tested on: EKVX NSCLC
HCC-2998 colon = tested on: HCC-2998 colon
HCT-116 colon = tested on: HCT-116 colon
HCT-15 colon = tested on: HCT-15 colon
HL-60(TB) leukemia = tested on: HL-60(TB) leukemia
HOP-62 NSCLC = tested on: HOP-62 NSCLC
HOP-92 NSCLC = tested on: HOP-92 NSCLC
HS 578T breast = tested on: HS 578T breast
HT29 colon = tested on: HT29 colon
IGROV1 ovarian = tested on: IGROV1 ovarian
K-562 leukemia = tested on: K-562 leukemia
KM12 colon = tested on: KM12 colon
LOX IMVI melanoma = tested on: LOX IMVI melanoma
M14 melanoma = tested on: M14 melanoma
MALME-3M melanoma = tested on: MALME-3M melanoma
MCF7 breast = tested on: MCF7 breast
MDA-MB-231 breast = tested on: MDA-MB-231 breast
MDA-MB-435 = tested on: MDA-MB-435
MDA-N = tested on: MDA-N
MOLT-4 leukemia = tested on: MOLT-4 leukemia
NCI-H23 lung = tested on: NCI-H23 lung
NCI-H460 lung = tested on: NCI-H460 lung
NCI/ADR-RES ovarian = tested on: NCI/ADR-RES ovarian
OVCAR-3 ovarian = tested on: OVCAR-3 ovarian
OVCAR-4 ovarian = tested on: OVCAR-4 ovarian
OVCAR-5 ovarian = tested on: OVCAR-5 ovarian
OVCAR-8 ovarian = tested on: OVCAR-8 ovarian
PC-3 prostate = tested on: PC-3 prostate
RPMI-8226 leukemia = tested on: RPMI-8226 leukemia
RXF 393 renal = tested on: RXF 393 renal
SF-268 CNS = tested on: SF-268 CNS
SF-295 CNS = tested on: SF-295 CNS
SF-539 CNS = tested on: SF-539 CNS
SK-MEL-2 melanoma = tested on: SK-MEL-2 melanoma
SK-MEL-28 melanoma = tested on: SK-MEL-28 melanoma
SK-MEL-5 melanoma = tested on: SK-MEL-5 melanoma
SK-OV-3 ovarian = tested on: SK-OV-3 ovarian
SN12C renal = tested on: SN12C renal
SNB-19 CNS = tested on: SNB-19 CNS
SNB-75 CNS = tested on: SNB-75 CNS
SR leukemia = tested on: SR leukemia
SW-620 colon = tested on: SW-620 colon
T-47D breast = tested on: T-47D breast
TK-10 renal = tested on: TK-10 renal
U251 CNS = tested on: U251 CNS
UACC-257 melanoma = tested on: UACC-257 melanoma
UACC-62 melanoma = tested on: UACC-62 melanoma
UO-31 renal = tested on: UO-31 renal

**Q.** For Cc1ccc(O)c(C2=CC3=NNC(=O)C3C(c3cccc(Br)c3)C2)c1 (configuration not stated), which TGI (786-0 renal) is on record?
**A.** > 75 µM

**Q.** What about the TGI (A498 renal) of the same compound?
**A.** > 75 µM

**Q.** What about the TGI (A549 NSCLC) of the same compound?
**A.** > 75 µM

**Q.** What about the TGI (ACHN renal) of the same compound?
**A.** > 75 µM

**Q.** What about the TGI (BT-549 breast) of the same compound?
**A.** 64.1 µM

**Q.** What about the TGI (CAKI-1 renal) of the same compound?
**A.** > 75 µM

**Q.** What about the TGI (CCRF-CEM leukemia) of the same compound?
**A.** > 75 µM

**Q.** What about the TGI (COLO 205 colon) of the same compound?
**A.** 22.8 µM

**Q.** And the TGI (DU-145 prostate)?
**A.** > 75 µM

**Q.** And the TGI (EKVX NSCLC)?
**A.** > 75 µM

**Q.** What about the TGI (HCC-2998 colon) of the same compound?
**A.** 31.7 µM

**Q.** What about the TGI (HCT-116 colon) of the same compound?
**A.** > 75 µM

**Q.** And the TGI (HCT-15 colon)?
**A.** > 75 µM

**Q.** And the TGI (HL-60(TB) leukemia)?
**A.** > 75 µM

**Q.** And the TGI (HOP-62 NSCLC)?
**A.** > 75 µM

**Q.** And the TGI (HOP-92 NSCLC)?
**A.** > 75 µM

**Q.** What about the TGI (HS 578T breast) of the same compound?
**A.** > 75 µM

**Q.** And the TGI (HT29 colon)?
**A.** > 75 µM

**Q.** What about the TGI (IGROV1 ovarian) of the same compound?
**A.** > 75 µM

**Q.** What about the TGI (K-562 leukemia) of the same compound?
**A.** > 75 µM

**Q.** What about the TGI (KM12 colon) of the same compound?
**A.** 39.5 µM

**Q.** What about the TGI (LOX IMVI melanoma) of the same compound?
**A.** 27.3 µM

**Q.** What about the TGI (M14 melanoma) of the same compound?
**A.** > 75 µM

**Q.** And the TGI (MALME-3M melanoma)?
**A.** 71.1 µM

**Q.** What about the TGI (MCF7 breast) of the same compound?
**A.** 31.7 µM

**Q.** What about the TGI (MDA-MB-231 breast) of the same compound?
**A.** 59.4 µM

**Q.** What about the TGI (MDA-MB-435) of the same compound?
**A.** > 75 µM

**Q.** And the TGI (MDA-N)?
**A.** > 75 µM

**Q.** What about the TGI (MOLT-4 leukemia) of the same compound?
**A.** > 75 µM

**Q.** What about the TGI (NCI-H23 lung) of the same compound?
**A.** > 75 µM

**Q.** What about the TGI (NCI-H460 lung) of the same compound?
**A.** > 75 µM

**Q.** And the TGI (NCI/ADR-RES ovarian)?
**A.** > 75 µM

**Q.** What about the TGI (OVCAR-3 ovarian) of the same compound?
**A.** 68.7 µM

**Q.** What about the TGI (OVCAR-4 ovarian) of the same compound?
**A.** 37 µM

**Q.** What about the TGI (OVCAR-5 ovarian) of the same compound?
**A.** 68.5 µM

**Q.** What about the TGI (OVCAR-8 ovarian) of the same compound?
**A.** 64.8 µM

**Q.** What about the TGI (PC-3 prostate) of the same compound?
**A.** > 75 µM

**Q.** What about the TGI (RPMI-8226 leukemia) of the same compound?
**A.** 72.8 µM

**Q.** What about the TGI (RXF 393 renal) of the same compound?
**A.** 28.2 µM

**Q.** And the TGI (SF-268 CNS)?
**A.** > 75 µM

**Q.** And the TGI (SF-295 CNS)?
**A.** 51.6 µM

**Q.** And the TGI (SF-539 CNS)?
**A.** > 75 µM

**Q.** What about the TGI (SK-MEL-2 melanoma) of the same compound?
**A.** > 75 µM

**Q.** And the TGI (SK-MEL-28 melanoma)?
**A.** > 75 µM

**Q.** What about the TGI (SK-MEL-5 melanoma) of the same compound?
**A.** > 75 µM

**Q.** And the TGI (SK-OV-3 ovarian)?
**A.** 63.9 µM

**Q.** And the TGI (SN12C renal)?
**A.** 63.5 µM

**Q.** And the TGI (SNB-19 CNS)?
**A.** > 75 µM

**Q.** And the TGI (SNB-75 CNS)?
**A.** 70 µM

**Q.** And the TGI (SR leukemia)?
**A.** > 75 µM

**Q.** What about the TGI (SW-620 colon) of the same compound?
**A.** > 75 µM

**Q.** And the TGI (T-47D breast)?
**A.** > 75 µM

**Q.** What about the TGI (TK-10 renal) of the same compound?
**A.** 41.3 µM

**Q.** And the TGI (U251 CNS)?
**A.** > 75 µM

**Q.** What about the TGI (UACC-257 melanoma) of the same compound?
**A.** > 75 µM

**Q.** And the TGI (UACC-62 melanoma)?
**A.** 70.9 µM

**Q.** What about the TGI (UO-31 renal) of the same compound?
**A.** > 75 µM
